{
  "source": "patent US9108045B2",
  "about": "“Method and apparatus for optical inhibition of photodynamic therapy” (The General Hospital Corporation, priority 2007, dated 2015)",
  "key": {"[1]": {"test_system": "anterior ear skin of swine", "type": "in vivo", "protocol": "Studies of ALA metabolism and porphyrin accumulation rates have been performed in anterior ear skin of swine. Such tissue bears many similarities to facial skin tissue in humans with respect to size and location of relevant tissue layers and target regions such as hair follicles and sebaceous glands. Topical 20% ALA in a water/alcohol solution was applied to the skin tissue, and formation of photosensitizers was analyzed based on quantitative fluorescence analysis of porphyrins formed from the ALA.\nOverall porphyrin fluorescence was not observed until about 30-45 minutes after application of the ALA solution, although epidermis fluorescence measurement was statistically significant after only 15 minutes following the ALA application. Between about 30 and 120 minutes following application of the ALA solution, epidermis, hair follicles, and sebaceous glands became progressively more fluorescent. […] Fluorescence in all sites reached a maximum intensity between about 75 and 180 minutes after application of the ALA solution."}, "[2]": {"test_system": "skin", "experiment": "Clinical suppression of superficial porphyrin synthesis by inhibiting light during ALA metabolism", "type": "in vivo", "text": "In further embodiments, superficial porphyrin accumulation resulting from topical application of ALA may be suppressed by blue light exposure during ALA metabolism. For example, a topical solution of 20% ALA can be applied to a region of skin. The region of skin can then be exposed to low level irradiance 410 nm blue light to inhibit accumulation of porphyrins. This light can be applied during the period of ALA metabolism, e.g., immediately after the application of the topical ALA solution or later in time. […] Here, clinical suppression refers to a diminished response of the tissue to treatment radiation in subsequent PDT procedures."}, "[3]": {"test_system": "human skin", "experiment": "Example 1: suppression of epidermal porphyrin accumulation by blue light exposure during ALA metabolism", "type": "in vivo", "settings": "20% topical ALA, 410-nm blue light 1.47 mW/cm^2 during 2 hours incubation, then 632-nm light 100 J/cm^2", "method": "Suppression of epidermal porphyrin accumulation by blue light exposure during ALA metabolism, in accordance with exemplary embodiments of the present invention, was tested in humans. With reference to FIG. 6, a 20% topical ALA solution was applied to human skin 610, covered with aluminum foil 620, while only some uncovered areas received 410-nm blue light (1.47 mW/cm^2) 630 during the incubation time. A fluorescent photo 640 was taken after 2 hours of incubation, and 632-nm light (100 J/cm^2) was then applied to all areas 650. A clinical photograph 660 was taken after PDT treatment."}, "[4]": {"test_system": "skin", "experiment": "Example 1: cooling and heating plates applied to skin after topical and injected ALA; porphyrin synthesis and skin photosensitization", "type": "in vivo", "protocol": "When a skin surface is cooled, there can be a gradient of temperature such that ALA metabolism might favor the warm dermis. To examine this effect, cooling and heating plates were applied to skin after topical and injected ALA administration, and porphyrin synthesis and skin photosensitization were then determined."}, "[5]": {"test_system": "skin of a pig", "experiment": "Example 2: blue light through attenuating films during ALA incubation; porphyrin accumulation by fluorescence", "type": "in vivo", "settings": "20% topical ALA, 410 nm blue light 2.6 mW/cm^2 for 3 hours through attenuating films, 100% to 17% transmittance (0.4 mW/cm^2)", "protocol": "In accordance with embodiments of the present invention, 20% topical ALA was applied to the skin of a pig. Nine different areas were divided and different attenuating films were placed over the skin during the entire incubation time (or the metabolism period). The attenuating films reduced the light transmittance allowing a range of irradiance varying from 100%, 56%, 44%, 35%, 26%, 21%, 19% to 17% of light during the incubation period.\nImmediately after the drug application, a 410 nm blue light was irradiated through all the experiment sites at an irradiance of 2.6 mW/cm^2 for 3 hours. During this period, porphyrin accumulation was measured in each test area by digital fluorescence photography (˜410 nm excitation, >600 nm emission), and microscopically determined by fluorescence microscopy of skin biopsies (8 mm diameter) obtained prior to light exposure. After the 3 hours of incubation, red light at 635 nm exposure with 200 J/cm^2 fluence was delivered at 100 mW/cm^2 irradiance, provided by an LED array source (Omnilux, PhotoTherapeutics LTD, Cheshire UK). Measurements and biopsies were repeated after 24 hours, prior to euthanasia."}, "[6]": {"test_system": "moderate to severe inflammatory acne", "type": "in vivo, human", "settings": "both sides of the face", "protocol": "A 20% ALA solution (Dusa Pharmaceutics) was applied topically to the patient's face. The right side of the patient's face was covered with saran wrap and aluminum foil for 3 hours of incubation (to provide a conventional PDT treatment), while blue light at very low intensity (an inhibiting radiation) was applied to the left side of the patient's face for 3 hours (using a Clearlight at […], provided about 2 meters from the patient).\nAfter the incubation period, both sides of the face were irradiated with red light treatment radiation (635 nm wavelength, at about 180 J/cm^2, using an Aktilite). During the red light irradiation, the patient indicated a subjective pain score of about 9-10 (on a 0-10 scale, with 0 being no pain, 5 being moderate pain, and 10 being maximum pain) on the right side of their face receiving conventional PDT treatment."}},
  "data": [
    {"smiles": "NCC(=O)CCC(=O)O", "note": "[ALA, 5-aminolevulinic acid]", "values": [
      {"measurement": "fluorescence of hair follicles and sebaceous glands relative to other sites (trend)", "setting": "[1]; in vivo", "result": "stronger fluorescence compared with epidermis and eccrine glands"},
      {"measurement": "time after application at which epidermis fluorescence measurement was statistically significant", "setting": "[1]; swine", "result": 15, "unit": "min"},
      {"measurement": "time after application at which fluorescence reached maximum intensity", "setting": "[1]; swine, in vivo", "result": "75 to 180", "unit": "min"},
      {"measurement": "time after application until overall porphyrin fluorescence was observed", "setting": "[1]; swine, in vivo", "result": "30 to 45", "unit": "min"},
      {"measurement": "time at which eccrine gland fluorescence was first detected", "setting": "[1]; swine, in vivo", "result": "about 30 minutes"},
      {"measurement": "time at which sebaceous glands started to show fluorescence", "setting": "[1]; swine, in vivo", "result": "45 to 75", "unit": "min"},
      {"measurement": "clinical suppression of superficial porphyrin synthesis", "setting": "[2]; red light 633 nm, irradiance about 14-40 mW/cm^2", "result": "some clinical suppression"},
      {"measurement": "clinical suppression of epidermal and/or superficial porphyrin synthesis", "setting": "[2]; topical 20% ALA, blue light 415 nm, irradiance about 10-30 mW/cm^2 during ALA metabolism", "result": "almost complete clinical suppression"},
      {"measurement": "suppression of photosensitizer formation", "setting": "[2]; topical 20% ALA, blue light, irradiance about 60 μW/cm^2 to 3 mW/cm^2", "result": "Some suppression"},
      {"measurement": "clinical suppression of photosensitizer formation", "setting": "[2]; topical 20% ALA, blue light, irradiance less than about 30 μW/cm^2", "result": "No clinical suppression"},
      {"measurement": "porphyrin accumulation and subsequent PDT reactions", "setting": "[3]", "result": "suppressed"},
      {"measurement": "conversion of epidermal ALA to porphyrins", "setting": "[4]; skin cooling to less than about 20° C., topical and injected ALA", "result": "significantly suppress"},
      {"measurement": "dermal porphyrin synthesis", "setting": "[4]; skin surface temperature 20° C.", "result": "partially suppressed"},
      {"measurement": "porphyrin accumulation under blue light", "setting": "[5]", "result": "inhibition of porphyrin accumulation in all sites down to 17% light transmittance"},
      {"measurement": "acne outcome after four weeks", "setting": "[6]", "result": "no new inflammatory acne"}
    ]}
  ]
}
